PubChem BioAssay (NCI)
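Grown in 96-well plates, cells were treated for 48 hours with each compound at five concentrations. Insufficient inhibition: endpoint recorded as highest concentration tested. TGI marks complete inhibition of growth.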 Where a SMILES comes first, the peptide text is derived from it. The star is where a group is joined. Cbz = O=C(OCc1ccccc1)*; NHNH2 = NN*

Assays:
Assay in all cases: NCI tumour cell line growth inhibition, 48 h
[1] = test system: OVCAR-3 ovarian
[2] = test system: HCT-15 colon
[3] = test system: ACHN renal
[4] = test system: NCI/ADR-RES ovarian
[5] = test system: SK-MEL-2 melanoma
[6] = test system: LOX IMVI melanoma

| SMILES | TGI [1] | TGI [2] | TGI [3] | TGI [4] | TGI [5] | TGI [6] |
| --- | --- | --- | --- | --- | --- | --- |
| S=C(N1CCN(c2cccc(Cl)c2)CC1)N1CCN(c2cccc(Cl)c2)CC1 | > 100 µM | > 100 µM | > 100 µM | > 100 µM | > 100 µM |  |
| CCOC(=O)CCC(NC(=O)OCc1ccccc1)C(=O)NC(CCC(=O)OCC)C(=O)NN (stereo unspecified) (Cbz-Glu(OEt)-Glu(OEt)-NHNH2; configuration not given here) |  | > 100 µM | > 100 µM |  | > 100 µM |  |
| NC(=O)c1c(NC=O)ncn1C1OCC(O)C(O)C1O (stereo unspecified) | > 100 µM | > 100 µM | > 100 µM | > 100 µM | > 100 µM | > 100 µM |
| C=CCN(c1cc(OC)c2[nH]c(C(=O)OCC)c(C)c2c1[N+](=O)[O-])S(C)(=O)=O | 80.2 µM | > 100 µM | 69.5 µM | 72.6 µM | 51.3 µM | 39.4 µM |
| COC(=O)/C=C(\S/C=C(/c1ccccc1)N1CCn2c(C(=O)c3ccccc3)c(C(=O)OC)c(C(=O)OC)c21)C(=O)OC | 2.87 µM | 6.7 µM | > 10 µM | > 10 µM | > 10 µM | 4.28 µM |
| CC(=O)C(=[N+]=[N-])C(=O)N(C)CCC#N | > 10 µM | > 10 µM | > 10 µM |  | > 10 µM | > 10 µM |
| Cc1ccc(NC(=O)/C(=N/N(C)C)C(C2OC(=O)c3ccccc32)[N+](=O)[O-])cc1 (stereo unspecified) | > 100 µM | > 100 µM | > 100 µM | > 100 µM | > 100 µM | > 100 µM |
| CCN(CC)c1ccc2cc(C(=O)Nc3ccc(C)cc3)c(=N)oc2c1 | > 100 µM | > 100 µM | > 100 µM | > 100 µM | > 100 µM | > 100 µM |
| CCC(O)c1ccc(N=Cc2ccccc2O)cc1 (stereo unspecified) | > 100 µM | > 100 µM | > 100 µM | > 100 µM | > 100 µM | > 100 µM |
| CN(C(=O)Cc1cc(Cl)c(Cl)cc1NC(=O)CN)[C@H]1CCCC[C@@H]1N1CCCC1 | > 100 µM | > 100 µM | > 100 µM | > 100 µM | 35.7 µM | 41.6 µM |
| O=C(Nc1cccc2ccccc12)c1ccccc1 | > 100 µM | > 100 µM | > 100 µM | > 100 µM | > 100 µM | > 100 µM |
| NC1Cc2ccccc2OC1=O (stereo unspecified) | > 100 µM | > 100 µM | > 100 µM | > 100 µM | > 100 µM |  |
| O=S(=O)(/N=C(\NO)Nc1ccc(Cl)cc1)c1ccccc1 | 8.89 µM | > 100 µM | 36.3 µM | 60.3 µM | 29.6 µM | 33.6 µM |
| N#CCN(CC#N)C1CC=CCC1N(CC#N)CC#N (stereo unspecified) | > 100 µM | > 100 µM | > 100 µM | > 100 µM | > 100 µM | > 100 µM |
| COc1ccccc1NCc1cccc2c(=O)c3ccc(Cl)cc3oc12 | > 100 µM | > 100 µM | > 100 µM | > 100 µM | > 100 µM | > 100 µM |
| Cc1ccc(S(=O)(=O)N/N=C2/CC3CCC4CC2CC34)cc1 (stereo unspecified) | > 100 µM | > 100 µM | > 100 µM | > 100 µM | > 100 µM | > 100 µM |

| SMILES | TGI [1] | TGI [2] | TGI [3] | TGI [4] | TGI [5] | TGI [6] |
| --- | --- | --- | --- | --- | --- | --- |
| Nc1c2c(nc3ccccc13)-c1ccccc1NCCC2 | > 100 µM | > 100 µM | > 100 µM | > 100 µM | 37.1 µM | 35.5 µM |
| CCOC(=O)CN1CC(C2=C(O)CN(CC(=O)OCC)C2=O)=CC1=O | > 100 µM | > 100 µM | > 100 µM | > 100 µM | > 100 µM | > 100 µM |
| CC1CN=C(c2cccc(-c3nc(-c4cccc(C5=NCC(C)N5)c4)nc(N(C)C)n3)c2)N1 (stereo unspecified) | 4.19 µM | 24.7 µM | 10.1 µM | 35.9 µM | 4.64 µM | 2.6 µM |
| Cc1cccc2c(N)c3cccc(C(=O)NCC[N+]4(Cc5ccc([N+](=O)[O-])cc5)CCOCC4)c3nc12 | > 100 µM | > 100 µM | > 100 µM | > 100 µM | > 100 µM | > 100 µM |
| COc1ccc2c3c1OC1C34CCN(C)C(C2)C4=CC(I)C1(OC)OC (stereo unspecified) | 18.5 µM | 27.8 µM | 23.4 µM | > 100 µM | 30.3 µM | 23.9 µM |
| CCOC(=O)c1cc(C2CCN(c3ccccc3)C2=O)c(C(=O)/C=C(/C)N)[nH]1 (stereo unspecified) | > 100 µM | > 100 µM | > 100 µM | > 100 µM | > 100 µM | > 100 µM |
| COC1CCC(=O)N1CN(C(C)=O)c1ccc(C)cc1 (stereo unspecified) | > 100 µM | > 100 µM | > 100 µM | > 100 µM | > 100 µM | > 100 µM |
| COc1ccc2nc3n(c2c1)C(=O)c1ccccc1-3 | > 100 µM | > 100 µM | > 100 µM | > 100 µM | > 100 µM |  |
| CCOC(=O)c1c(N2CCCC2)ncn(C)c1=S | > 100 µM | > 100 µM | > 100 µM | > 100 µM | > 100 µM | > 100 µM |
| O=C(O)c1ccc(Nc2nc3cc(C(F)(F)F)ccc3n3cccc23)cc1 | > 100 µM | > 100 µM | > 100 µM | > 100 µM | > 100 µM | 30.5 µM |
| COC(=O)[C@@H]1CC(C(CN)c2cn(C(=O)OC(C)(C)C)c3ccccc23)C(=O)N1C(=O)OC(C)(C)C (stereo partly specified) | 59.8 µM | > 100 µM | > 100 µM | 55.8 µM | 55.3 µM | 30.5 µM |
| CC1(C)OC[C@@H](O)[C@H](Br)CO1 | > 100 µM | > 100 µM | > 100 µM |  | > 100 µM | > 100 µM |
| CCOC(=O)C(O)(C(=O)OCC)c1cc(C(C)(C)C)c(O)c(C(C)(C)C)c1 | > 100 µM | > 100 µM | > 100 µM | > 100 µM | > 100 µM | > 100 µM |
| c1ccc2c(c1)ccn1ccc3c4ccccc4nc-3c21 | 2.92 µM |  | 1.87 µM | 2.17 µM | 2.54 µM | 1.48 µM |
| C=CCOc1ccccc1C1(O)c2ccccc2C2=NCCCN21 (stereo unspecified) | 59.7 µM | > 100 µM | 83.9 µM | > 100 µM |  | > 100 µM |
